In patent US9682995B2, “Amino-substituted isothiazoles” (BAYER PHARMA AKTIENGESELLSCHAFT, priority 2013, dated 2017):

System: spindle assembly checkpoint
Experiment: SAC-Formation - Nocodazole-Induced Assay
Assay type: cell-based
Conditions: Homo sapiens; HeLa cells, nocodazole 0.1 μg/ml, 24 h, phosphorylated histone H3 on serine 10
Source text: The spindle assembly checkpoint assures the proper segregation of chromosomes during mitosis. Upon entry into mitosis, chromosomes begin to condensate which is accompanied by the phosphorylation of histone H3 on serine 10. Dephosphorylation of histone H3 on serine 10 begins in anaphase and ends at early telophase. Accordingly, phosphorylation of histone H3 on serine 10 can be utilized as a marker of cells in mitosis. Nocodazole is a microtubule destabilizing substance. Paclitaxel is a microtubule stabilizing compound. Thus, nocodazole as well as paclitaxel interfere with microtubule dynamics and mobilize the spindle assembly checkpoint. […] The mitotic breakthrough can be detected by the decrease of cells with phosphorylation of histone H3 on serine 10. This decline is used as a marker to determine the capability of compounds of the present invention to induce a mitotic breakthrough. The typical morphological alteration of nuclei with a prematurely completed mitosis after SAC-inhibition can be monitored via image analysis routines supporting those findings.
The nocodazole and paclitaxel variations were used to focus on compounds that are capable of inhibiting a SAC induced by both microtubule destabilization as well as microtubule stabilization. When SAC inducing agents and compounds are given simultaneously, inhibitors that effectively block the SAC during formation or abrogation are identified. When cells are incubated with a SAC inducing agent and the SAC interfering compound is given after a defined time, inhibitors are identified that effectively block SAC abrogation.
Cultivated cells of the human cervical tumor cell line HeLa (ATCC CCL-2) were plated at a density of 1000 cells/well in a 1536-well microtiter plate in 2 μl PAA Ham's F12 Medium supplemented with 1% (v/v) glutamine, 1% (v/v) penicillin, 1% (v/v) streptomycin and 10% (v/v) fetal calf serum. After incubation overnight at 37° C., 10 μl/well nocodazole at a final concentration of 0.1 μg/ml were added to cells. Test compounds solubilized in dimethyl sulfoxide (DMSO) were added at various concentrations (0 μM, as well as in the range of 0.005 μM-20 μM; the final concentration of the solvent DMSO was 0.5% (v/v)). Cells were incubated for 24 h at 37° C. in the presence of test compounds in combination with nocodazole. Thereafter, cells were fixed in 4% (v/v) paraformaldehyde in phosphate buffered saline (PBS) at 4° C. overnight then permeabilized in 0.1% (v/v) Triton X™ 100 in PBS at room temperature for 20 min and blocked in 0.5% (v/v) bovine serum albumin (BSA) in PBS at room temperature for 15 min. After washing with PBS, 5 μl/well antibody solution (anti-phospho-histone H3 clone 3H10, FITC; Millipore, Cat #16-222; 1:1000 dilution) was added to cells, which were incubated for 2 h at room temperature. Afterwards, cells were washed with PBS and 5 μl/well solution of HOECHST 33342 dye (5 μg/ml) was added to cells and cells were incubated 15 min at room temperature in the dark. Cells were washed twice with PBS then covered with PBS and stored at 4° C. until analysis. Images were acquired with a PERKIN ELMER OPERA™ High-Content Analysis reader. Images were analyzed with image analysis software MetaXpress™ from Molecular devices utilizing the Mitotic Index application module. In this assay both labels HOECHST 33342 and phosphorylated Histone H3 on serine 10 were measured. HOECHST 33342 labels the DNA and is used to count the cell number. The staining of phosphorylated Histone H3 on serine 10 determines the number of mitotic cells. […] Otherwise cells were arrested at G2/M phase of the cell cycle progression. The raw assay data were further analyzed by four-parametric hill equation using Genedata's Assay Analyzer and Condoseo software.

| Compound | IC50 [µM] |
| --- | --- |
| CCOC(=O)c1cc(C)nc(Nc2snc(C)c2C(=O)Nc2ccccc2CC)c1 [Example 139] | > 20 |
| CCc1ccccc1NC(=O)c1c(C)nsc1Nc1ncccc1C [Example 141] | 19 |
| Cc1nsc(Nc2cncc(C(=O)N3CCN(C)CC3)n2)c1C(=O)Nc1ccc(F)c(F)c1 [Example 133] | 15 |
| COc1ccc(NC(=O)c2c(C)nsc2Nc2ncc(C(=O)O)s2)cn1 [Example 126] | 19 |
| CCc1ccccc1NC(=O)c1c(C)nsc1Nc1ncccn1 [Example 137] | > 20 |
| CCc1ccccc1NC(=O)c1c(C)nsc1Nc1cc(OC)ccn1 [Example 134] | > 20 |
| CNc1cncc(Nc2snc(C)c2C(=O)Nc2ccc(F)c(F)c2)n1 [Example 132] | 14 |
| COc1ccc(NC(=O)c2c(C)nsc2Nc2nc3c(C(F)(F)F)ccnc3s2)cn1 [Example 123] | 0.22 |
| COc1ccc(NC(=O)c2c(C)nsc2Nc2nc3cnccc3s2)cn1 [Example 129] | 14 |
| COC(=O)c1ccnc(Nc2snc(C)c2C(=O)Nc2ccc(OC)nc2)c1 [Example 140] | > 20 |
| CCc1ccccc1NC(=O)c1c(C)nsc1Nc1nc(C)cc(C)n1 [Example 127] | > 20 |
| COc1ccc(NC(=O)c2c(C)nsc2Nc2nc3ncc(C(F)(F)F)cc3s2)cn1 [Example 124] | 18 |
| COc1ccc(NC(=O)c2c(C)nsc2Nc2ncc(C(=O)N3CCOCC3)s2)cn1 [Example 128] | 13 |
| CCc1ccccc1NC(=O)c1c(C)nsc1Nc1nccc2ccccc12 [Example 138] | 17 |
| Cc1nsc(Nc2nc(C(=O)N(C)C)cs2)c1C(=O)Nc1ccc(F)c(F)c1 [Example 131] | 11 |
| CCc1cnc(Nc2snc(C)c2C(=O)Nc2ccccc2CC)nc1 [Example 136] | 6.8 |
| Cc1nsc(Nc2cc(C(=O)N(C)C)ccn2)c1C(=O)Nc1ccc(F)c(F)c1 [Example 130] | > 20 |
| COc1ccnc(Nc2snc(C)c2C(=O)Nc2ccc(F)c(F)c2)c1 [Example 125] | > 20 |
| CCc1ccccc1NC(=O)c1c(C)nsc1Nc1ncc(OC)cn1 [Example 135] | 16 |

Next, values leading:

| IC50 [µM] | Compound |
| --- | --- |
| 2.8 | COc1ccc(Oc2ccc(NC(=O)c3c(C)nsc3Nc3ccc(C#N)cn3)cn2)cc1 [Example 157] |
| 7.2 | CCc1ccccc1NC(=O)c1c(C)nsc1Nc1ccc(C(=O)OC)cn1 [Example 145] |
| 13 | COC(=O)c1cnc(Nc2snc(C)c2C(=O)Nc2ccc(OC)nc2)o1 [Example 147] |
| 15 | CCc1ccccc1NC(=O)c1c(C)nsc1Nc1ncnc(C)c1C [Example 159] |
| 1.4 | CCc1ccccc1NC(=O)c1c(C)nsc1Nc1cnc(C(=O)OC)cn1 [Example 146] |
| > 20 | CCc1ccccc1NC(=O)c1c(C)nsc1Nc1cccc(OC)n1 [Example 148] |
| 15 | CCc1ccccc1NC(=O)c1c(C)nsc1Nc1cnc(C(N)=O)cn1 [Example 161] |
| > 20 | COc1ccc(NC(=O)c2c(C)nsc2Nc2ncc(C(N)=O)s2)cn1 [Example 152] |
| > 20 | CCc1ccccc1NC(=O)c1c(C)nsc1Nc1ncccc1OC [Example 144] |
| 4.3 | CCNC(=O)c1cnc(Nc2snc(C)c2C(=O)Nc2ccc(OC)nc2)s1 [Example 154] |
| > 20 | COc1ccc(NC(=O)c2c(C)nsc2Nc2ccc(C#N)cn2)cc1F [Example 162] |
| 1.3 | Cc1nsc(Nc2cnccn2)c1C(=O)Nc1ccc(OC2CCCCC2)nc1 [Example 163] |
| > 20 | CCOc1ccc(NC(=O)c2c(C)nsc2Nc2cc(C#N)ccn2)cn1 [Example 143] |
| 0.55 | COc1ccc(NC(=O)c2c(C)nsc2Nc2nc(-c3ccc(Cl)cc3)cs2)cn1 [Example 156] |
| 16 | CCOC(=O)c1cnc(Nc2snc(C)c2C(=O)Nc2ccc(OC)nc2)o1 [Example 150] |
| 14 | CCc1ccccc1NC(=O)c1c(C)nsc1Nc1ccccn1 [Example 142] |
| 4.1 | CCc1ccccc1NC(=O)c1c(C)nsc1Nc1cc(C(=O)OC)ccn1 [Example 149] |
| 2.6 | COc1ccc(NC(=O)c2c(C)nsc2Nc2nc(C(N)=O)cs2)cn1 [Example 160] |
| 1.5 | Cc1nsc(Nc2ccc(C(=O)N(C)C)nn2)c1C(=O)Nc1ccc(F)c(F)c1 [Example 153] |
| 4.2 | COc1ccc(NC(=O)c2c(C)nsc2Nc2ncc(C#N)s2)cn1 [Example 158] |
| 5.8 | COc1ccc(NC(=O)c2c(C)nsc2Nc2ncc(C(=O)N(C)C)s2)cn1 [Example 155] |
| 1.7 | Cc1nsc(Nc2ccc(C(N)=O)cn2)c1C(=O)Nc1ccc(Cl)c(F)c1 [Example 151] |
